Holding throughout (assay type): functional, cell-based
Experiment [1] has as its system RPMI-8226. Description: Inhibition of cell growth in drug resistant 8226 myeloma cell line. Conditions: Homo sapiens.
Experiment [2] deals with RPMI-8226. Description: Inhibition of cell growth in drug sensitive 8226 myeloma cell line. Conditions: Homo sapiens.
In experiment [3] the test system is A549. Kind of experiment: Inhibition of cell growth in (A-549) lung cell line. The following applies: Homo sapiens.
Experiment [4] concerns A-375. Kind of experiment: Inhibition of cell growth in (A375) melan cell line. The following applies: Homo sapiens.
Experiment [5] relates to L1210. Kind of experiment: Inhibition of cell growth in (L1210 leukemia) MDR cells determined by MTT assay. The following applies: Mus musculus. A general note: Tetrazolium assays rely on reduction of a dye to a coloured formazan, in cell work by metabolically active cells.
Experiment [6] has as its system L1210. Description: Inhibition of cell growth in drug sensitive L1210 leukemia cell line determined by MTT assay. The following applies: Mus musculus.
The test system of experiment [7] is MCF7. Description: Inhibition of cell growth in (MCF7 breast) dox cell line. Conditions: Homo sapiens.
Experiment [8] deals with MCF7. Description: Inhibition of cell growth in (MCF7 breast) mitox cell line. The following applies: Homo sapiens.
The subject of experiment [9] is MCF7. Description: Inhibition of cell growth in drug sensitive MCF-7 breast cell line. The following applies: Homo sapiens.
The subject of experiment [10] is OVCAR-3. Description: Inhibition of cell growth in (OVCAR-3) ovarian cell line. Conditions: Homo sapiens.
In experiment [11] the test system is WiDr. Kind of experiment: Inhibition of cell growth in drug resistant WiDr colon cell line. Conditions: Homo sapiens.
The test system of experiment [12] is WiDr. Kind of experiment: Inhibition of cell growth in drug sensitive WiDr colon cell line. The following applies: Homo sapiens.

Structures are written as SMILES.

As for `CCCCNC(=O)N1CC1C#N` (stereo unspecified), the IC50 (usually the concentration at which inhibition is half-maximal) in experiment [1] stood at 17 µM; in [2], 17 µM; in experiment [3] it was 18 µM; in experiment [4], 15 µM; in experiment [5] it was 12 µM; in experiment [6], 12 µM. Besides, the half-maximal inhibitory concentration (IC50) was 6.7 µM in [7]; more than 12 µM in experiment [8]; more than 12 µM in [9]; 12 µM in [10]; 18 µM in experiment [11]; 14 µM in experiment [12].
For `N#CC1CN1C(=O)Nc1ccc(S(N)(=O)=O)cc1` (stereo unspecified), the IC50 in experiment [1] was more than 38 µM; in [2], more than 38 µM; in experiment [3] it was more than 38 µM; in experiment [4], 188 µM; in experiment [5], more than 38 µM; in [6] it was more than 38 µM. The half-maximal inhibitory concentration (IC50) in experiment [7] was more than 15 µM; in [8], more than 15 µM; in experiment [9], more than 15 µM; in experiment [10] it was 188 µM; in experiment [11] it was more than 38 µM; in experiment [12], more than 38 µM.
Turning to `CCOC(=O)c1ccc(NC(=O)N2CC2C#N)cc1` (stereo unspecified), the IC50 in experiment [1] amounted to 3 µM; in experiment [2], 3 µM; in [3], 2.9 µM; in experiment [4] it was 5.8 µM; in experiment [5], 9.7 µM; in experiment [6], 9.7 µM. The IC50 was found to be 2.1 µM in [7]; 3.3 µM in experiment [8]; 2.3 µM in experiment [9]; 7.7 µM in experiment [10]; 4.2 µM in experiment [11]; 2.5 µM in experiment [12].
For `N#CC1CN1C(=O)Nc1cccc2ccccc12` (stereo unspecified), the IC50 was 8.9 µM in experiment [1]; 8 µM in experiment [2]; 2.5 µM in experiment [3]; 4.2 µM in [4]; 2.5 µM in [5]; 7.2 µM in experiment [6]. In addition, the IC50 in [7] was found to be 1.7 µM; in experiment [8], 2 µM; in [9] it was 2 µM; in experiment [10], 5.9 µM; in [11], 2.5 µM; in experiment [12] it was 2.4 µM.
Consider `CNC(=O)N1CC1C#N` (stereo unspecified), for which the IC50 amounted to 26 µM in [1]; 26 µM in experiment [2]; 22 µM in [3]; 17 µM in experiment [4]; 21 µM in experiment [5]; 8.7 µM in experiment [6]. The 50% inhibitory concentration (IC50) in experiment [7] came to 17 µM; in [8] it was 18 µM; in experiment [9] it was 27 µM; in [10], 14 µM; in experiment [11], 23 µM; in [12] it was 21 µM.
On to `CC(C)(C)NC(=O)N1CC1C#N` (stereo unspecified), for which the IC50 in [1] came out at 216 µM; in experiment [2], 120 µM; in experiment [3] it was 180 µM; in experiment [4] it was 418 µM; in experiment [5], 457 µM; in experiment [6], 132 µM. Besides, the IC50 in [7] is 190 µM; in experiment [8], 120 µM; in experiment [9], more than 300 µM; in experiment [10] it was 186 µM; in [11] it was more than 300 µM; in experiment [12] it was 180 µM.
For the compound `N#CC1CN1C(=O)Nc1ccc(Cl)c(Cl)c1` (stereo unspecified), the concentration for half-maximal inhibition (IC50) in [1] is 2.7 µM; in experiment [2], 1.1 µM; in experiment [3], 7.5 µM; in [4], 5.9 µM; in experiment [5], 7.2 µM; in experiment [6], 2.6 µM. The IC50 in [7] turned out to be 7.2 µM; in [8] it was 4.4 µM; in [9], 4.6 µM; in [10] it was 5.6 µM; in experiment [11] it was 14 µM; in [12], 7 µM.
On to `N#CC1CN1C(N)=O` (stereo unspecified), for which the IC50 in experiment [4] was more than 90 µM; in [5] it was more than 90 µM; in experiment [6], more than 90 µM; in experiment [7] it was more than 54 µM; in experiment [8] it was more than 54 µM; in experiment [9], more than 54 µM. The same compound displayed an IC50 in experiment [10] of more than 90 µM.

For the origin of these results see ChEMBL document CHEMBL1132573, “Novel antitumor 2-cyanoaziridine-1-carboxamides” (J Med Chem, 1999).
